US10442791B2, “DNA-PK inhibitors” (Vertex Pharmaceuticals Incorporated, priority 2012, dated 2019)

Biological target: DNA-PK (Homo sapiens, UniProt P78527)
Assay: DNA-PK inhibition assay (radiometric 33P-ATP kinase assay)
Assay type: biochemical
Conditions: 100 μM ATP; competitive tight-binding fit
Protocol: Compounds were screened for their ability to inhibit DNA-PK kinase using a standard radiometric assay. Briefly, in this kinase assay the transfer of the terminal ^33P-phosphate in ^33P-ATP to a peptide substrate is interrogated. The assay was carried out in 384-well plates to a final volume of 50 μL per well containing approximately 6 nM DNA-PK, 50 mM HEPES (pH 7.5), 10 mM MgCl2, 25 mM NaCl, 0.01% BSA, 1 mM DTT, 10 μg/mL sheared double-stranded DNA (obtained from Sigma), 0.8 mg/mL DNA-PK peptide ([…] obtained from American Peptide), and 100 μM ATP. Accordingly, compounds of the invention were dissolved in DMSO to make 10 mM initial stock solutions. Serial dilutions in DMSO were then made to obtain the final solutions for the assay. A 0.75 μL aliquot of DMSO or inhibitor in DMSO was added to each well, followed by the addition of ATP substrate solution containing ^33P-ATP (obtained from Perkin Elmer). The reaction was started by the addition of DNA-PK, peptide and ds-DNA. After 45 min. the reaction was quenched with 25 μL of 5% phosphoric acid. The reaction mixture was transferred to MultiScreen HTS 384-well PH plates (obtained from Millipore), allowed to bind for one hour, and washed three times with 1% phosphoric acid. Following the addition of 50 μL of Ultima Gold™ high efficiency scintillant (obtained from Perkin Elmer), the samples were counted in a Packard TopCount NXT Microplate Scintillation and Luminescence Counter (Packard BioScience). The Ki values were calculated using Microsoft Excel Solver macros to fit the data to the kinetic model for competitive tight-binding inhibition.

SMILES | Ki
COc1ccccc1[C@H](C)CNc1cc(-c2ccc(NCC(O)CO)nc2)ncn1 (single isomer, unassigned) [Compound 200] | < 30 nM
COc1ccccc1[C@H](C)CNc1cc(-c2ccnc(N[C@@H](C)CO)c2)ncn1 (single isomer, unassigned) [Compound 213] | < 30 nM
CNC(=O)c1ccc([C@H](C)CNc2cc(-c3ccc(NC(C)COC)nc3)ncn2)c(OC)c1 (single isomer, unassigned) [Compound 394] | < 30 nM
Cc1ccc(-c2cc(NC[C@@H](C)c3ccnc4c3OCCO4)ncn2)cn1 (single isomer, unassigned) [Compound 443] | < 30 nM
COc1ccc(CCNc2cc(-c3ccc4ncccc4c3)ncn2)c(OC)c1 [Compound 28] | < 30 nM
COc1ccccc1[C@H](C)CNc1cc(-c2cnc3[nH]ncc3c2)ncn1 [Compound 150] | < 30 nM
Cc1ccc(-c2cc(NCC(C)c3cncc4c3OCC4)ncn2)cn1 (centres unmarked) [Compound 418] | < 30 nM
CNC(=O)c1ccnc2c([C@H](C)CNc3cc(-c4cnc(OC5CCN(C(=O)OC(C)(C)C)C5)nc4)ncn3)cccc12 (some centres unmarked) [Compound 746] | < 30 nM
CNC(=O)c1ccnc2c([C@H](C)CNc3cc(-c4cc(C)nc(C)c4)ncn3)cccc12 [Compound 820] | < 30 nM
CNC(=O)c1c(F)cnc2c([C@H](C)CNc3cc(-c4cnc(C(C)C)nc4)ncn3)cccc12 [Compound 859] | < 30 nM
CNC(=O)c1ccnc2c([C@H](C)CNc3cc(-c4cnc(OC)c(CO)c4)ncn3)ccc(F)c12 [Compound 883] | < 30 nM
CCN(CC)c1cc(-c2cc(NC[C@@H](C)c3cccc4c(C(=O)NC)ccnc34)ncn2)ccn1 [Compound 892] | < 30 nM
CNC(=O)c1cc(C(F)(F)F)nc2c([C@H](C)CNc3cc(-c4ccc(C)nc4)ncn3)cccc12 [Compound 985] | < 30 nM
CNC(=O)c1ccnc2c([C@H](C)CNc3cc(-c4cnc5c(c4)COC5(C)C)ncn3)cccc12 [Compound 986] | < 30 nM
CNC(=O)c1c(F)cnc2c([C@H](C)CNc3cc(-c4cnc5c(c4)COC5(C)C)ncn3)cccc12 [Compound 987] | < 30 nM
Cc1ccc(-c2cc(NC[C@@H](C)c3cccc4c3ncc3[nH][nH]c(=O)c34)ncn2)cn1 [Compound 993] | < 30 nM
Cc1ccc(-c2cc(NC[C@@H](C)c3cccc4c3ncc3[nH]n(C)c(=O)c34)ncn2)cn1 [Compound 994] | < 30 nM

SMILES | Ki
Cc1ccc(-c2cc(NC[C@@H](C)c3cccc4c3ncc3c4c(=O)[nH]n3C)ncn2)cn1 [Compound 995] | < 30 nM
CNC(=O)c1ccnc2c([C@H](C)CNc3cc(-c4cnc(OC(C)(C)C)nc4)ncn3)cccc12 [Compound 996] | < 30 nM
CNC(=O)c1c(F)cnc2c([C@H](C)CNc3cc(-c4cnc(OC(C)(C)C)nc4)ncn3)cccc12 [Compound 997] | < 30 nM
CNC(=O)c1ccnc2c([C@H](C)CNc3cc(-c4cnc(OC(C)(C)C)nc4)ncn3)ccc(F)c12 [Compound 998] | < 30 nM
CNC(=O)c1c(F)cnc2c([C@H](C)CNc3cc(-c4cnc(COC)nc4)ncn3)cccc12 [Compound 999] | < 30 nM
CNC(=O)c1ccnc2c([C@H](C)CNc3cc(-c4cnc(COC)nc4)ncn3)ccc(F)c12 [Compound 1000] | < 30 nM
[2H]C([2H])([2H])C([2H])([2H])c1ncc(-c2cc(NC[C@@H](C)c3cccc4c(C(=O)NC)c(F)cnc34)ncn2)cn1 [Compound 1004] | < 30 nM
CNC(=O)c1ncnc2c([C@H](C)CNc3cc(-c4ccc(OC)nc4)ncn3)cccc12 [Compound 1005] | < 30 nM
CNC(=O)c1ncnc2c([C@H](C)CNc3cc(-c4ccc(F)nc4)ncn3)cccc12 [Compound 1006] | < 30 nM
CNC(=O)c1ncnc2c([C@H](C)CNc3cc(-c4cnc(OC)nc4)ncn3)cccc12 [Compound 1009] | < 30 nM
CNC(=O)c1ncnc2c([C@H](C)CNc3cc(-c4ccc(C#N)cc4)ncn3)cccc12 [Compound 1010] | < 30 nM
CCOc1ncc(-c2cc(NC[C@@H](C)c3cccc4c(C(=O)NC)ncnc34)ncn2)cn1 [Compound 1011] | < 30 nM
CNC(=O)c1ccnc2c([C@H](C)CNc3cc(-c4cnc(COC(C)C)nc4)ncn3)cccc12 [Compound 1014] | < 30 nM
CNC(=O)c1c(F)cnc2c([C@H](C)CNc3cc(-c4cnc(COC(C)C)nc4)ncn3)cccc12 [Compound 1015] | < 30 nM
CNC(=O)c1ncnc2c([C@H](C)CNc3cc(-c4ccc(C(=O)NCCC#N)nc4)ncn3)cccc12 [Compound 1016] | < 30 nM
CNC(=O)c1ncnc2c([C@H](C)CNc3cc(-c4ccc(C(=O)NCCC#N)cc4)ncn3)cccc12 [Compound 1017] | < 30 nM

Results, then the compound that gave them:

Ki | SMILES
< 30 nM | CNC(=O)c1ccnc2c([C@H](C)CNc3cc(-c4cnc5c(c4)C(C)OC5)ncn3)cccc12 (single isomer, unassigned) [Compound 1012]
< 30 nM | CNC(=O)c1ccnc2c([C@H](C)CNc3cc(-c4ccnc(C(C)OC)c4)ncn3)cccc12 (single isomer, unassigned) [Compound 1039]
< 30 nM | CNC(=O)c1ccnc2c([C@H](C)CNc3cc(-c4cnc(OCC(F)(F)F)nc4)ncn3)cccc12 [Compound 769]
< 30 nM | CNC(=O)c1ccnc2c([C@H](C)CNc3cc(-c4cnc(N5CCN(CC(F)(F)F)CC5)nc4)ncn3)cccc12 [Compound 781]
< 30 nM | CNC(=O)c1ccnc2c([C@H](C)CNc3cc(-c4ccc(CC5CCN(C)CC5)nc4)ncn3)cccc12 [Compound 989]
< 30 nM | CNC(=O)c1c(F)cnc2c([C@H](C)CNc3cc(-c4ccc(CC5CCN(C)CC5)nc4)ncn3)cccc12 [Compound 991]
< 30 nM | CNC(=O)c1ccnc2c([C@H](C)CNc3cc(-c4ccc(CC5CCN(C)CC5)nc4)ncn3)ccc(F)c12 [Compound 992]
< 30 nM | CNC(=O)c1ccnc2c([C@H](C)CNc3cc(-c4cnc(CC5CCN(C)CC5)nc4)ncn3)cccc12 [Compound 1001]
< 30 nM | CNC(=O)c1c(F)cnc2c([C@H](C)CNc3cc(-c4cnc(CC5CCN(C)CC5)nc4)ncn3)cccc12 [Compound 1002]
< 30 nM | CNC(=O)c1ccnc2c([C@H](C)CNc3cc(-c4ccc(CC5CCN(C(C)=O)CC5)nc4)ncn3)cccc12 [Compound 1007]
< 30 nM | CNC(=O)c1c(F)cnc2c([C@H](C)CNc3cc(-c4ccc(CC5CCN(C(C)=O)CC5)nc4)ncn3)cccc12 [Compound 1008]
< 30 nM | CNC(=O)c1ccnc2c([C@H](C)CNc3cc(-c4ccc(CC5CCN(C(C)=O)CC5)nc4)ncn3)ccc(F)c12 [Compound 1018]
< 30 nM | CNC(=O)c1ccnc2c([C@H](C)CNc3cc(-c4ccc(CC5CCN(CC(F)F)CC5)nc4)ncn3)cccc12 [Compound 1019]
< 30 nM | CNC(=O)c1ccnc2c([C@H](C)CNc3cc(-c4ccc(CC5CCN(CC(F)F)CC5)nc4)ncn3)ccc(F)c12 [Compound 1020]
< 30 nM | CNC(=O)c1c(F)cnc2c([C@H](C)CNc3cc(-c4ccc(CC5CCN(CC(F)(F)F)CC5)nc4)ncn3)cccc12 [Compound 1021]
< 30 nM | CNC(=O)c1ccnc2c([C@H](C)CNc3cc(-c4ccc(CC5CCN(CC(F)(F)F)CC5)nc4)ncn3)ccc(F)c12 [Compound 1022]
< 30 nM | CNC(=O)c1ccnc2c([C@H](C)CNc3cc(-c4ccc(CC5CCN(CC(F)(F)F)CC5)nc4)ncn3)cccc12 [Compound 1023]
